Patent US20050282743A1, “Molecular interactions in cells” (Arbor Vita Corporation, priority 2001, published 2005)
Ends that are not written are not given here. Peptide text beside a SMILES is read from it. * marks the point of attachment. Biotin = O=C1N[C@H]2[C@H](CS[C@H]2CCCCC(=O)*)N1

Columns and labels:
Assay in all cases: G' assay (10 uM PL peptide), results of TABLE 7 and TABLE 12
Format in all cases: binding
[1] = biological target: T1, PDZ protein (GST-PDZ fusion) (Homo sapiens, UniProt Q12923)
T1 construct: made in house; host or cells: E. coli (DH5alpha, BL21 or JM109)
T1 sequence (Q12923 whole entry, the tested form may be a part): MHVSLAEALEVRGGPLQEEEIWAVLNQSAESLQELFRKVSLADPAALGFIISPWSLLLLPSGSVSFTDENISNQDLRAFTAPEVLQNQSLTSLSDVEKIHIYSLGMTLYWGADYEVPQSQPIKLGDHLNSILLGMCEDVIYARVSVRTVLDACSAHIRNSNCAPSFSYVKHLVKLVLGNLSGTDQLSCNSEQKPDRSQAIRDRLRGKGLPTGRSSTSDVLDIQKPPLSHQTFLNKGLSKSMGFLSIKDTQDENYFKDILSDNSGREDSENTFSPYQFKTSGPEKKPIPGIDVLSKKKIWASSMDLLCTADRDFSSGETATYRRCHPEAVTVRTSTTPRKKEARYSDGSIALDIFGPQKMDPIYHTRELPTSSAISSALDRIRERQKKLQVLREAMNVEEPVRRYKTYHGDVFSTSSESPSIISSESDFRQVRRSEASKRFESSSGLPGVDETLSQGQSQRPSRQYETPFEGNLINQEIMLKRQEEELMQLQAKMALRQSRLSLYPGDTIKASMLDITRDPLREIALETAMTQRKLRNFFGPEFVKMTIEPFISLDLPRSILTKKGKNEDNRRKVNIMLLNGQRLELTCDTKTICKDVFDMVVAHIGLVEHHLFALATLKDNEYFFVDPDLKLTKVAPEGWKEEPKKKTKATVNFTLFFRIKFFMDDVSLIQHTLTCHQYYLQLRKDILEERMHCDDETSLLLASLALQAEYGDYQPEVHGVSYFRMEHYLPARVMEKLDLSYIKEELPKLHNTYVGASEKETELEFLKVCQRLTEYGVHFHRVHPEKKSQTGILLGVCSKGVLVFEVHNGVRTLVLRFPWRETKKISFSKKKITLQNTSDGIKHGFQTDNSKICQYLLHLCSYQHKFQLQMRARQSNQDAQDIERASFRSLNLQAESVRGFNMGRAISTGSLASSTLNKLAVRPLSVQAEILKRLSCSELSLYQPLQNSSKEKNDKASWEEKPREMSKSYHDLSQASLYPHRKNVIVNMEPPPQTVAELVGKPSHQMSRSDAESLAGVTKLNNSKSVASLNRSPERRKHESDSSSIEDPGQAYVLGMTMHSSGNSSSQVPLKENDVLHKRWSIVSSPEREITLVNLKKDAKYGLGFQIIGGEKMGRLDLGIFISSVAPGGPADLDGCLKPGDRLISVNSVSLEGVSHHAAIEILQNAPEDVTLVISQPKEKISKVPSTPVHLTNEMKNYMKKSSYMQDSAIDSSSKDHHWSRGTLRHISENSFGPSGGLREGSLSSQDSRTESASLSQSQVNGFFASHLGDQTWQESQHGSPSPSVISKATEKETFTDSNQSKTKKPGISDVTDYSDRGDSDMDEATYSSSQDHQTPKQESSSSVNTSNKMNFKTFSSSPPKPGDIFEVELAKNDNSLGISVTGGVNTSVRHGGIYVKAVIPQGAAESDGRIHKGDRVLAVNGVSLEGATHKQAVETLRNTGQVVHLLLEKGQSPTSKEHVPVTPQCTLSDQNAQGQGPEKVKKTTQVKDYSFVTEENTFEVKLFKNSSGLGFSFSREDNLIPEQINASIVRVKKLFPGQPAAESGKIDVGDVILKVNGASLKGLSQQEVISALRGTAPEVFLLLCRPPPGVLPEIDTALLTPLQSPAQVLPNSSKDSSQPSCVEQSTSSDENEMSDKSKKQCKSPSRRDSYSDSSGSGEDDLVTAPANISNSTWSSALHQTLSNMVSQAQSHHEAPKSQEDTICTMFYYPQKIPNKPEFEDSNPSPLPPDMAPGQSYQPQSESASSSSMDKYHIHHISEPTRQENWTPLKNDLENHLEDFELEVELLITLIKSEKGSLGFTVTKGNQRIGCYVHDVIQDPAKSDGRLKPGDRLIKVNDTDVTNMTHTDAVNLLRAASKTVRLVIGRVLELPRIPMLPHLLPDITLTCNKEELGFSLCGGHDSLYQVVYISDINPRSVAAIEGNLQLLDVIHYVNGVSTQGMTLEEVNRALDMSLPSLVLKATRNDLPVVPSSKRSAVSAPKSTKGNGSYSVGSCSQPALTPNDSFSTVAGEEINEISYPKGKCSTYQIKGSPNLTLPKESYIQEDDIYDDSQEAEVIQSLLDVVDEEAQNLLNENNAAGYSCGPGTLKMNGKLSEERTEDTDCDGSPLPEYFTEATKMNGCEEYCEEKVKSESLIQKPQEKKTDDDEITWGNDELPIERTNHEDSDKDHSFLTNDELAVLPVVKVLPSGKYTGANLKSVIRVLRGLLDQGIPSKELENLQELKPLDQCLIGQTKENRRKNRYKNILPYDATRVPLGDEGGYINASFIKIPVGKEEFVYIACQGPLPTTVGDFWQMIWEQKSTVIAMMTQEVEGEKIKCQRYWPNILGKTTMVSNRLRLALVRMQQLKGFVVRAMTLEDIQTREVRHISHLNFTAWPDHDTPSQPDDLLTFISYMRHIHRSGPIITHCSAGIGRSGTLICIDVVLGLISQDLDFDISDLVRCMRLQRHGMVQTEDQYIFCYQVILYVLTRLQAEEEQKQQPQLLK
Outline: (§1)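 Biotinylated PL peptides at 10 uM (vs 20 uM in G^0 assay) bound to GST-PDZ fusions; PDZ protein at 5 ug/ml unless another concentration listed. Bound peptide read as A450 nm, classified 0–5 (0 = A450 0; 5 = A450 >4 repeated).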

[2] = tested on: PDZ protein (GST-PDZ fusion)
Outline: as §1

[3] = biological target: T2, PDZ protein (GST-PDZ fusion) (Homo sapiens, UniProt Q5TCQ9)
T2 construct: made in house; host or cells: E. coli (DH5alpha, BL21 or JM109)
T2 sequence (Q5TCQ9 1-1481): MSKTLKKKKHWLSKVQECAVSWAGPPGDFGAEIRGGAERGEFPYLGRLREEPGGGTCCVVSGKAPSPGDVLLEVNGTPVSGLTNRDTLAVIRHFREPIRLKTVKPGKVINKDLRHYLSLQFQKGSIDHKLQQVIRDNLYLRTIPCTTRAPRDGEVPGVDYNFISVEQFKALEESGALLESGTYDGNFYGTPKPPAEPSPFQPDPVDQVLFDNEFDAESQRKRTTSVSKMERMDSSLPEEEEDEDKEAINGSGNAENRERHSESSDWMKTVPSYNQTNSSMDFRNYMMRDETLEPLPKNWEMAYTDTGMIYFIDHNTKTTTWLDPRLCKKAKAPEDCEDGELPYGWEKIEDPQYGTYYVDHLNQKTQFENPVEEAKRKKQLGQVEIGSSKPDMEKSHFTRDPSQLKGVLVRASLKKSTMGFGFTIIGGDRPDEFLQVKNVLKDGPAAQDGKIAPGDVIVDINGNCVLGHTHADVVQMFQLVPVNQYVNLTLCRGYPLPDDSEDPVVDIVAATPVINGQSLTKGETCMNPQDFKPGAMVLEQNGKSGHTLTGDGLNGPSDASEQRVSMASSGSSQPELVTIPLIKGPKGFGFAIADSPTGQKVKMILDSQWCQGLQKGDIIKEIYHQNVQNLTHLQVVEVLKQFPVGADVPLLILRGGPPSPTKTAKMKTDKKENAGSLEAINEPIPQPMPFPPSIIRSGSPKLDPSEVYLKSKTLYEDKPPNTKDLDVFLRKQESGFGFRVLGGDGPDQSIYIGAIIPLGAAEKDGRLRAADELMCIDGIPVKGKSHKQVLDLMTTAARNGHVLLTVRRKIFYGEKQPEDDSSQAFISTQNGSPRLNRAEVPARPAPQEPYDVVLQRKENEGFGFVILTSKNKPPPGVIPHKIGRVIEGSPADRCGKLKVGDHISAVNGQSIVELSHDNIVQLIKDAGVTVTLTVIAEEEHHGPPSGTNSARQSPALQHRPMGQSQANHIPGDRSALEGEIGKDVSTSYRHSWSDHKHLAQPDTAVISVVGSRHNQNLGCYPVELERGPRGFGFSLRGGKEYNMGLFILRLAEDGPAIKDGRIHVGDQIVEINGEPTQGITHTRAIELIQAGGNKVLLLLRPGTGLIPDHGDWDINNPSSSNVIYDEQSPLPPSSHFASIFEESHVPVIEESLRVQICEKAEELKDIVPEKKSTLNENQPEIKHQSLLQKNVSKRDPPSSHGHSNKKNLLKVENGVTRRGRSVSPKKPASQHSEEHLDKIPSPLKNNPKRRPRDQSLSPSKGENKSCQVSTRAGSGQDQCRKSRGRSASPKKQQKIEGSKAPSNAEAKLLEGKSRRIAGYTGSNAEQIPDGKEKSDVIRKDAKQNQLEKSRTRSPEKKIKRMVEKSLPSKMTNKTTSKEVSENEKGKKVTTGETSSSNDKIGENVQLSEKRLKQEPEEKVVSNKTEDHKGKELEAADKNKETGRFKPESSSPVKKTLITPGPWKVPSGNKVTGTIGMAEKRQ
Outline: as §1

[4] = biological target: T3, PDZ protein (GST-PDZ fusion) (Homo sapiens, UniProt O75970)
T3 construct: made in house; host or cells: E. coli (DH5alpha, BL21 or JM109)
T3 sequence (O75970 whole entry, the tested form may be a part): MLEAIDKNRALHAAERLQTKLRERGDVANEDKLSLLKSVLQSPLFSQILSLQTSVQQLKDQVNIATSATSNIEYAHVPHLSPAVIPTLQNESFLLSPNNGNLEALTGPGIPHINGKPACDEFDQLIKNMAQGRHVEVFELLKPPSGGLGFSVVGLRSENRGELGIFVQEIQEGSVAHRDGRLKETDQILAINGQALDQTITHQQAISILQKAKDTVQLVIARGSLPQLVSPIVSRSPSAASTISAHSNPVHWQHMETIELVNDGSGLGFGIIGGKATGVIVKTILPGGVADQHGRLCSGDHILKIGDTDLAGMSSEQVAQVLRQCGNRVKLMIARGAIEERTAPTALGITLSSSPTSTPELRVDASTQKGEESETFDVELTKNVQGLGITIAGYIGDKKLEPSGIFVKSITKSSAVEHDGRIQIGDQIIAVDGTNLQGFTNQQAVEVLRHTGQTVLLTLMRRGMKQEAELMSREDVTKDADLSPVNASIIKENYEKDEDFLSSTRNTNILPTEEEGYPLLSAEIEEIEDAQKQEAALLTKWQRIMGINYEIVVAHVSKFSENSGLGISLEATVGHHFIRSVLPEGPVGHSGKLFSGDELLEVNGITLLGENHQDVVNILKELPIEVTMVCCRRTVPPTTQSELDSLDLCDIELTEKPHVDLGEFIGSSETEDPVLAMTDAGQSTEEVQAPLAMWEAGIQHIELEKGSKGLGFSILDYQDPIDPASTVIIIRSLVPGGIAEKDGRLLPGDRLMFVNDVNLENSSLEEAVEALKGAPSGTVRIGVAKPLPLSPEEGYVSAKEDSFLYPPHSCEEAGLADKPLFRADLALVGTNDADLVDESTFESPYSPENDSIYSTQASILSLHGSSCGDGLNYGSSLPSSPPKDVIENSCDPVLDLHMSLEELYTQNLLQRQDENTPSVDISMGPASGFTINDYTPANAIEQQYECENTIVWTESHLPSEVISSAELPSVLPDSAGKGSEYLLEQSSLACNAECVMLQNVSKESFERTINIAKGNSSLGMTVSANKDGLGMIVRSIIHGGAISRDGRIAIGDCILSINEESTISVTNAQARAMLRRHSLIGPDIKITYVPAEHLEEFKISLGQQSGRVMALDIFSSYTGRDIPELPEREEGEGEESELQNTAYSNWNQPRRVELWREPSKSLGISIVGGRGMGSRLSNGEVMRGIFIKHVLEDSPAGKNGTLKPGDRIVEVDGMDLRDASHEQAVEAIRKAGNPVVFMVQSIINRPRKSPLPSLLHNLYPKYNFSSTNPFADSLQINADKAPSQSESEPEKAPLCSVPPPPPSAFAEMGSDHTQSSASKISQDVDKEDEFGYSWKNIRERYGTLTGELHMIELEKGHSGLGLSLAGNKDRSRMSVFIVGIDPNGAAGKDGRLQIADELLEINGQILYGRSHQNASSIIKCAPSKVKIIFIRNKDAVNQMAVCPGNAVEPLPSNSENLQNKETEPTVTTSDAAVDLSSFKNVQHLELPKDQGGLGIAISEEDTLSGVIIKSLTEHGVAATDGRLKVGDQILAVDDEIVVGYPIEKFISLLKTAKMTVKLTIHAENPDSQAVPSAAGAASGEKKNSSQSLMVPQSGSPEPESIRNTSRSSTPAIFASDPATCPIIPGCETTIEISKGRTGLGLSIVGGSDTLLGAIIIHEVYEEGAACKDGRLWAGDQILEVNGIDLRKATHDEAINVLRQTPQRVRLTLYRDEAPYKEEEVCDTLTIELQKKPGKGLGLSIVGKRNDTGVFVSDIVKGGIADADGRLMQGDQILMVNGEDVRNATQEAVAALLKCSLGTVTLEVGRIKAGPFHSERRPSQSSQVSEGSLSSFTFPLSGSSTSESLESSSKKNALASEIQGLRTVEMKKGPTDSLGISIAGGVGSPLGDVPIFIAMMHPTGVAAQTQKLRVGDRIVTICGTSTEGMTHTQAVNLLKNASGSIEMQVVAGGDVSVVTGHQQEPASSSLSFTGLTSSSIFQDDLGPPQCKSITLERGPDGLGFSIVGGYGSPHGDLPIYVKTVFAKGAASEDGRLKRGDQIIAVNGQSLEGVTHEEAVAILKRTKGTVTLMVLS
Outline: as §1

[5] = biological target: T4, PDZ protein (GST-PDZ fusion) (Homo sapiens, UniProt Q6P0Q8)
T4 construct: made in house; host or cells: E. coli (DH5alpha, BL21 or JM109)
Outline: as §1

[6] = PDZ HEMBA 1003117, PDZ Domain 1
[7] = PDZ Unnamed Protein, PDZ Domain 2
[8] = PDZ KIAA807, PDZ Domain not given

Row | Compound | Classification ([1]; PDZ PTPL-1, PDZ Domain 2) | Classification ([1]; PDZ PTPL-1, PDZ Domain 4) | Classification [2, 6] | Classification ([4]; PDZ MUPP-1, PDZ Domain 11) | Classification ([5]; PDZ KIAA0807(S), PDZ Domain 1) | Classification ([4]; PDZ MUPP-1, PDZ Domain 3) | Classification ([4]; PDZ MUPP-1, PDZ Domain 7) | Classification ([4]; PDZ MUPP-1, PDZ Domain 9) | further results
1 | CC[C@H](C)[C@H](NC(=O)[C@H](CCC(=O)O)NC(=O)[C@H](CC(N)=O)NC(=O)[C@H](CCCNC(=N)N)NC(=O)[C@H](Cc1ccccc1)NC(=O)[C@H](CC(N)=O)NC(=O)[C@H](CO)NC(=O)[C@H](CC(N)=O)NC(=O)[C@H](CCC(=O)O)NC(=O)[C@H](CO)NC(=O)[C@H](CC(=O)O)NC(=O)[C@H](CO)NC(=O)[C@@H](NC(=O)[C@@H](NC(=O)[C@H](CC(=O)O)NC(=O)[C@H](CCCCN)NC(=O)CCCC[C@@H]1SC[C@@H]2NC(=O)N[C@@H]21)[C@@H](C)CC)[C@@H](C)O)C(=O)N[C@@H](CCC(N)=O)C(=O)N[C@@H](CO)C(=O)N[C@@H](CC(C)C)C(=O)N[C@H](C(=O)O)C(C)C [CD95] (Biotin-KDITSDSENSNFRNEIQSLV-OH; C-terminus assumed) | 3 (A450 nm 2-3) | 1 (A450 nm 0-1) | – | – | – | – | – | – | Classification ([2]; PDZ BAI-1, PDZ Domain 5): 3 (A450 nm 2-3); Classification ([3]; PDZ KIAA1634, PDZ Domain 1): 1 (A450 nm 0-1); Classification ([3]; PDZ KIAA1634, PDZ Domain 2): 1 (A450 nm 0-1); Classification ([3]; PDZ KIAA1634, PDZ Domain 4): 1 (A450 nm 0-1)
2 | GPVPGEPAKPKTSAHHATFV (Biotin-GPVPGEPAKPKTSAHHATFV) | – | 1 (A450 nm 0-1) | 1 (A450 nm 0-1) | 1 (A450 nm 0-1) | – | – | – | – | –
3 | A2AC_HUMAN (Modified) (Biotin-DFRPSFKHILFRRARRGFRQ; not fully specified) | – | – | – | – | – | – | – | – | Classification ([1]; PDZ PTPL-1, PDZ Domain 5): 3 (A450 nm 2-3); Classification ([4]; PDZ MUPP-1, PDZ Domain 4): 3 (A450 nm 2-3)
4 | CC[C@H](C)[C@H](NC(=O)[C@H](Cc1ccc(O)cc1)NC(=O)[C@H](CC(C)C)NC(=O)[C@H](CCC(N)=O)NC(=O)[C@H](Cc1c[nH]cn1)NC(=O)[C@H](CO)NC(=O)[C@H](C)NC(=O)[C@H](CC(C)C)NC(=O)[C@@H](NC(=O)[C@H](CC(=O)O)NC(=O)[C@H](CCSC)NC(=O)[C@H](Cc1ccccc1)NC(=O)[C@@H]1CCCN1C(=O)[C@H](CCCNC(=N)N)NC(=O)[C@@H](NC(=O)[C@H](CC(C)C)NC(=O)[C@H](CC(N)=O)NC(=O)[C@H](CC(=O)O)NC(=O)[C@@H](NC(=O)[C@H](CO)NC(=O)CCCC[C@@H]1SC[C@@H]2NC(=O)N[C@@H]21)[C@@H](C)O)C(C)C)[C@@H](C)O)C(=O)O [presenilin-2] (Biotin-STDNLVRPFMDTLASHQLYI-OH; C-terminus assumed) | – | 2 (A450 nm 1-2) | 4 (A450 nm 3-4) | – | 1 (A450 nm 0-1) | 3 (A450 nm 2-3) | 2 (A450 nm 1-2) | 3 (A450 nm 2-3) | –
5 | A2AA_HUMAN (modified) (Biotin-HDFRRAFKKILARGDRKRIV; not fully specified) | 2 (A450 nm 1-2) | – | 1 (A450 nm 0-1) | – | 1 (A450 nm 0-1) | – | – | – | Classification ([2]; PDZ BAI-1, PDZ Domain 6): 3 (A450 nm 2-3); Classification [2, 7]: 1 (A450 nm 0-1); Classification ([4]; PDZ MUPP-1, PDZ Domain 6): 2 (A450 nm 1-2); Classification ([4]; PDZ MUPP-1, PDZ Domain 8): 1 (A450 nm 0-1); Classification ([4]; PDZ MUPP-1, PDZ Domain 13): 1 (A450 nm 0-1)
6 | KTMPAAMFRLLTGQETPLYI (Biotin-KTMPAAMFRLLTGQETPLYI) [MINT-2] | – | 4 (A450 nm 3-4) | 3 (A450 nm 2-3) | 5 (A450 nm of 4 more than 2× repeated) | 4 (A450 nm 3-4) | 1 (A450 nm 0-1) | 1 (A450 nm 0-1) | 1 (A450 nm 0-1) | Classification [5, 8]: 3 (A450 nm 2-3); Classification ([4]; PDZ MUPP-1, PDZ Domain 2): 1 (A450 nm 0-1)
7 | CC[C@H](C)[C@H](NC(=O)[C@H](Cc1ccc(O)cc1)NC(=O)[C@@H](NC(=O)[C@@H]1CCCN1C(=O)[C@H](CCC(N)=O)NC(=O)[C@H](CCC(=O)O)NC(=O)[C@H](CCC(N)=O)NC(=O)[C@H](C)NC(=O)[C@@H](NC(=O)[C@H](CC(C)C)NC(=O)[C@H](CC(C)C)NC(=O)[C@H](CCCNC(=N)N)NC(=O)[C@H](Cc1ccc(O)cc1)NC(=O)[C@H](CCSC)NC(=O)[C@H](C)NC(=O)[C@H](C)NC(=O)[C@@H]1CCCN1C(=O)[C@H](CCSC)NC(=O)[C@@H](NC(=O)[C@H](CCCCN)NC(=O)CCCC[C@@H]1SC[C@@H]2NC(=O)N[C@@H]21)[C@@H](C)O)[C@@H](C)O)C(C)C)C(=O)O [MINT-1] (Biotin-KTMPAAMYRLLTAQEQPVYI-OH; C-terminus assumed) | – | 5 (A450 nm of 4 more than 2× repeated) | 3 (A450 nm 2-3) | 5 (A450 nm of 4 more than 2× repeated) | 5 (A450 nm of 4 more than 2× repeated) | 3 (A450 nm 2-3) | 3 (A450 nm 2-3) | 3 (A450 nm 2-3) | Classification [5, 8]: 4 (A450 nm 3-4); Classification ([4]; PDZ MUPP-1, PDZ Domain 1): 1 (A450 nm 0-1); Classification ([4]; PDZ MUPP-1, PDZ Domain 2): 1 (A450 nm 0-1); Classification ([4]; PDZ MUPP-1, PDZ Domain 5): 2 (A450 nm 1-2); Classification ([4]; PDZ MUPP-1, PDZ Domain 10): 1 (A450 nm 0-1)
8 | CC[C@H](C)[C@H](NC(=O)[C@H](CO)NC(=O)[C@@H](NC(=O)[C@H](Cc1ccccc1)NC(=O)[C@H](CO)NC(=O)CCCC[C@@H]1SC[C@@H]2NC(=O)N[C@@H]21)[C@@H](C)O)C(=O)N[C@@H](CC(C)C)C(=O)N[C@H](C(=O)N[C@@H](CS)C(=O)N[C@@H](Cc1c[nH]cn1)C(=O)N[C@@H](CCC(N)=O)C(=O)N[C@@H](CCCNC(=N)N)C(=O)N[C@@H](CCCNC(=N)N)C(=O)N[C@H](C(=O)N[C@@H](CCC(N)=O)C(=O)N[C@@H](CCCNC(=N)N)C(=O)N[C@@H](CCCCN)C(=O)N[C@@H](CCC(=O)O)C(=O)N[C@H](C(=O)N[C@H](C(=O)N[C@@H](C)C(=O)O)C(C)C)[C@@H](C)O)[C@@H](C)O)[C@@H](C)O [GluR5-2 (rat)] | – | – | – | 1 (A450 nm 0-1) | 1 (A450 nm 0-1) | – | – | – | Classification ([2]; PDZ BAI-1, PDZ Domain 2): 5 (A450 nm of 4 more than 2× repeated); Classification ([4]; PDZ MUPP-1, PDZ Domain 10): 2 (A450 nm 1-2); Classification ([3]; PDZ KIAA1634, PDZ Domain 1): 5 (A450 nm of 4 more than 2× repeated)
9 | CC(C)C[C@H](NC(=O)[C@H](C)NC(=O)[C@@H](NC(=O)[C@@H](NC(=O)[C@H](Cc1c[nH]cn1)NC(=O)[C@H](CC(C)C)NC(=O)CNC(=O)[C@H](CCC(N)=O)NC(=O)CNC(=O)CNC(=O)[C@H](C)NC(=O)[C@H](C)NC(=O)[C@H](CCCNC(=N)N)NC(=O)[C@H](C)NC(=O)[C@H](CO)NC(=O)[C@H](CC(=O)O)NC(=O)[C@H](CC(=O)O)NC(=O)[C@H](Cc1c[nH]c2ccccc12)NC(=O)[C@H](C)NC(=O)CCCC[C@@H]1SC[C@@H]2NC(=O)N[C@@H]21)C(C)C)[C@@H](C)O)C(=O)O [LPAP] (Biotin-AWDDSARAAGGQGLHVTAL-OH; C-terminus assumed) | 1 (A450 nm 0-1) | – | 1 (A450 nm 0-1) | – | – | – | – | – | Classification ([5]; PDZ KIAA807): 5 (A450 nm of 4 more than 2× repeated); Classification ([2]; PDZ BAI-1, PDZ Domain 2): 2 (A450 nm 1-2); Classification ([2]; PDZ FLJ 00011, PDZ Domain 1): 4 (A450 nm 3-4); Classification ([2]; PDZ SHANK, PDZ Domain 1): 3 (A450 nm 2-3); Classification [2, 7]: 3 (A450 nm 2-3)
